Results taken from PubChem BioAssay (NCI).
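Test compounds were applied to cells in 96-well plates for 48 hours at 5 doses. TGI: concentration producing complete growth inhibition.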

Legend:
Assay in all cases: NCI anticancer screen, dose series, 48 h
UACC-62 melanoma = tested on: UACC-62 melanoma
K-562 leukemia = tested on: K-562 leukemia
NCI-H522 lung = tested on: NCI-H522 lung
COLO 205 colon = tested on: COLO 205 colon
SK-MEL-5 melanoma = tested on: SK-MEL-5 melanoma
HT29 colon = tested on: HT29 colon
OVCAR-4 ovarian = tested on: OVCAR-4 ovarian
DMS 114 small cell lung = tested on: DMS 114 small cell lung
SK-MEL-28 melanoma = tested on: SK-MEL-28 melanoma
SW-620 colon = tested on: SW-620 colon
KM12 colon = tested on: KM12 colon
LXFL 529 NSCLC = tested on: LXFL 529 NSCLC
OVCAR-8 ovarian = tested on: OVCAR-8 ovarian
SNB-19 CNS = tested on: SNB-19 CNS
M14 melanoma = tested on: M14 melanoma
MOLT-4 leukemia = tested on: MOLT-4 leukemia
HOP-18 NSCLC = tested on: HOP-18 NSCLC
HL-60(TB) leukemia = tested on: HL-60(TB) leukemia
CCRF-CEM leukemia = tested on: CCRF-CEM leukemia
HOP-92 NSCLC = tested on: HOP-92 NSCLC
HCT-116 colon = tested on: HCT-116 colon
SN12C renal = tested on: SN12C renal
ACHN renal = tested on: ACHN renal
KM20L2 colon = tested on: KM20L2 colon
U251 CNS = tested on: U251 CNS
RXF 393 renal = tested on: RXF 393 renal
LOX IMVI melanoma = tested on: LOX IMVI melanoma
M19-MEL melanoma = tested on: M19-MEL melanoma
SF-268 CNS = tested on: SF-268 CNS
OVCAR-3 ovarian = tested on: OVCAR-3 ovarian
786-0 renal = tested on: 786-0 renal
UO-31 renal = tested on: UO-31 renal
A549 NSCLC = tested on: A549 NSCLC
A498 renal = tested on: A498 renal
TK-10 renal = tested on: TK-10 renal
DLD-1 colon = tested on: DLD-1 colon
IGROV1 ovarian = tested on: IGROV1 ovarian
HOP-62 NSCLC = tested on: HOP-62 NSCLC
NCI-H460 lung = tested on: NCI-H460 lung
SK-OV-3 ovarian = tested on: SK-OV-3 ovarian
MALME-3M melanoma = tested on: MALME-3M melanoma
SK-MEL-2 melanoma = tested on: SK-MEL-2 melanoma
DMS 273 small cell lung = tested on: DMS 273 small cell lung
UACC-257 melanoma = tested on: UACC-257 melanoma
XF 498 CNS = tested on: XF 498 CNS
CAKI-1 renal = tested on: CAKI-1 renal
NCI-H226 lung = tested on: NCI-H226 lung
NCI-H23 lung = tested on: NCI-H23 lung
RPMI-8226 leukemia = tested on: RPMI-8226 leukemia
HCT-15 colon = tested on: HCT-15 colon
SNB-75 CNS = tested on: SNB-75 CNS

Measured: TGI

Cc1ccccc1NC(=O)C(=O)c1c(O)c2ccc(O)cc2oc1=O
> 100 µM: all assays above
